In PubChem BioAssay (NCI):
Values joined by “and” are separate entries in the source; they are usually repeats but may differ in a detail not shown here. Identical values can stand only once.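 Where inhibition never reached the appropriate level, the endpoint shown equals the highest concentration tested. Otherwise, values were interpolated linearly from a five-concentration, 48-hour dose response in 96-well plates. GI50 is the concentration that inhibits growth by half. TGI: concentration producing complete growth inhibition.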

Key:
Assay in all cases: inhibition of tumour cell growth, NCI panel, 48 h
NCI-H460 lung = system: NCI-H460 lung
SR leukemia = system: SR leukemia
SNB-75 CNS = system: SNB-75 CNS
BT-549 breast = system: BT-549 breast
HT29 colon = system: HT29 colon
MCF7 breast = system: MCF7 breast
HL-60(TB) leukemia = system: HL-60(TB) leukemia
OVCAR-8 ovarian = system: OVCAR-8 ovarian
SNB-19 CNS = system: SNB-19 CNS
SK-MEL-2 melanoma = system: SK-MEL-2 melanoma

Row | SMILES | GI50 (NCI-H460 lung) [µM] | TGI (NCI-H460 lung) | GI50 (SR leukemia) [µM] | TGI (SR leukemia) [µM] | GI50 (SNB-75 CNS) [µM] | TGI (SNB-75 CNS) | GI50 (BT-549 breast) [µM] | TGI (BT-549 breast) | GI50 (HT29 colon) [µM] | TGI (HT29 colon) | GI50 (MCF7 breast) [µM] | TGI (MCF7 breast) | GI50 (HL-60(TB) leukemia) [µM] | TGI (HL-60(TB) leukemia) | GI50 (OVCAR-8 ovarian) [µM] | TGI (OVCAR-8 ovarian) | GI50 (SNB-19 CNS) [µM] | TGI (SNB-19 CNS) | GI50 (SK-MEL-2 melanoma) [µM] | TGI (SK-MEL-2 melanoma)
1 | CC#CC(=O)N1CCC[C@H]1c1nc(-c2ccc(C(=O)Nc3ccccn3)cc2)c2c(N)nccn12 | 89.5 | > 100 µM | 43.8 | > 100 | 24.5 | > 100 µM | > 96.5 | > 100 µM | 55.1 | > 100 µM | 58 | > 100 µM | > 100 | > 100 µM | > 80.4 | > 100 µM | > 79.9 | > 100 µM | > 88.4 | > 100 µM
2 | O=C(/C=C\c1ccnc2ccccc12)c1ccc([N+](=O)[O-])cc1 | > 68.1 | > 100 µM | 2.28 | 7.37 | > 75.4 | > 100 µM | 11.2 | 27.4 µM | 2.36 | 5.37 µM | 1.64 | 3.54 µM | 5.89 | > 75.5 µM | 12.4 | > 100 µM | 14.8 | > 68.3 µM | > 100 | > 100 µM
3 | COc1ccc(/C=C2\N=C3SC=C(N)N3C2=O)cc1 | 0.582 | 14 µM | 1.02 | 4.85 | 0.757 | 7.61 µM | 0.73 | 3.84 µM | 1.21 | 3.37 µM | 0.459 | 6.29 µM | 1.12 | 4.6 µM | 1.44 | 10.4 µM | 3.32 | 17 µM | 1.02 | 2.75 µM
4 | CC(=O)N1CC(F)(F)c2c(Sc3ncc(N4CCC5(CC4)COC[C@H]5N)nc3N)cccc21 | 31.8 | > 100 µM | 8.16 | 35.8 | 3.19 | 38.2 µM | 10.8 | 53.7 µM | 14.2 | 52.9 µM | 15.8 | 55.6 µM | 18.3 | 36.4 µM | 35 | > 100 µM | 14.4 | > 100 µM | 24.7 | > 100 µM
5 | CC(=O)/C(C)=N/N/C(N)=N\S(=O)(=O)c1cc(C(=O)Nc2ccccc2)c(Cl)cc1SCc1ccccc1 | 18 | 79.3 µM | 6.2 | > 100 | > 100 | > 100 µM | 23.8 | > 100 µM | 61.6 | > 100 µM | 76.7 | > 100 µM | 2.36 | 24.2 µM | 8.6 | > 100 µM | > 100 | > 100 µM | 43.5 | > 100 µM
6 | CC1(C)OCN(c2ccc(Cl)cc2)Cn2c1nc1ccccc12 | – | > 100 µM | – | 98.6 | – | > 100 µM | – | > 100 µM | – | > 100 µM | – | > 100 µM | – | 47.8 µM | – | > 100 µM | – | > 100 µM | – | > 100 µM
7 | CN(C)c1ccc(/C=C/c2ccnc3ccccc23)cc1 | 3.07 | > 100 µM and 16.8 µM | – | > 100 | 2.41 | > 100 µM and 11.9 µM | 1.88 | > 100 µM and 14.6 µM | 3.18 | 84.3 µM and 11.8 µM | 0.922 | > 100 µM and 44.4 µM | 2.86 | > 100 µM and 16.8 µM | 5.68 | > 100 µM | 6.56 | > 100 µM | 26.2 | > 100 µM
8 | NC(CSC(c1ccccc1)(c1ccccc1)c1ccc2ccccc2c1)C(=O)O (stereo not drawn) | 0.0485 | 12.1 µM | 0.0869 | > 40.5 | 0.121 | 30.6 µM | 0.144 | 22.8 µM | 0.2 | > 100 µM | 0.0321 | 21.9 µM | 0.0493 | – | 0.0804 | 21.3 µM | 0.066 | 17.3 µM | 1.29 | 30 µM
9 | COc1ccc(/C=C(\C#N)c2cc3ccccc3n2C)cc1 | 0.389 | 37.9 µM | 0.176 | – | 0.198 | 5.5 µM | 0.627 | > 100 µM | 0.347 | > 34.1 µM | 0.343 | > 100 µM | 0.262 | – | 0.56 | > 100 µM | 0.492 | > 100 µM | 0.471 | > 100 µM
10 | O=[N+]([O-])c1ccc2c(N=Nc3c(O)ccc4ccccc34)c(O)cc(S(=O)(=O)O)c2c1 | – | > 100 µM | – | > 100 | 44.8 | 50 µM and > 100 µM | 37.5 | 50 µM and > 100 µM | 49.6 | 50 µM and > 100 µM | – | > 100 µM | 7.58 | 14.9 µM and 58.6 µM | 31.3 | 50 µM and > 100 µM | 19.3 | 50 µM and > 100 µM | 40.9 | 50 µM and > 100 µM
11 | Cn1cnc([N+](=O)[O-])c1Sc1ncnc2c1ncn2C1OC(CO)C(O)C1O (stereo not drawn) | 5.72 | > 100 µM | 5.2 | > 100 | 27.7 | > 100 µM | > 100 | > 100 µM | 7.3 | > 100 µM | 1.79 | > 100 µM | 22.6 | > 100 µM | 6.19 | > 100 µM | > 100 | > 100 µM | 8.9 | > 100 µM
12 | Oc1ccccc1-n1c(-c2ccccc2)ccc1-c1ccccc1 | 4.35 | 17.7 µM | 4.2 | 18 | 4.46 | 21.5 µM | 13.4 | 89.5 µM | 2.22 | 11 µM | 5.08 | 16.5 µM | 5.2 | > 100 µM | 12.1 | 29.6 µM | 12.7 | 34.3 µM | 4.63 | 19.4 µM
